Measured values as given in US20230346716A1, “TREATMENT OF SKIN DISORDERS WITH TOPICAL TAPINAROF COMPOSITIONS” (Sol-Gel Technologies Ltd., priority 2019, published 2023).

Columns and labels:
[1] = system: HBD2, Psoriasin (S100A7), CD4, CD8, IL-17, IL-22; assay: Study 2: immunohistochemical markers for psoriasis in human xenotransplants; type: in vivo, beige-SCID mice; conditions: immunohistochemistry of xenotransplants
[2] = system: experimentally induced psoriasis in normal human skin grafted onto beige-SCID mice; assay: Study 2: histology of human skin xenograft psoriasis model in beige-SCID mice; type: in vivo; parameters: Mean Epidermal Thickness: unit not given here
Source text: (§1) The objective of this study was to determine the efficacy of tapinarof composition as described in Example 8 compared to the vehicle and Dexamethasone as shown below. The evaluation was based on histology analysis following application of the respective test formulations.
(§2) In this model, a psoriasis phenotype is induced in normal skin grafted onto beige-severe combined immunodeficient mice by intradermal injection of natural killer/T-cells derived from psoriatic patients (Gilhar et al., Psoriasis is mediated by a cutaneous defect triggered by activated immunocytes: induction of psoriasis by cells with natural killer receptors, J. Invest. Dermatol. 2002 August; 119(2):384-91).
(§3) In order to address the aim of the experiment, the psoriatic humanized mice were established Additionally, 10 psoriatic patients were recruited (six males and four females), ranging from 21 to 66 years (mean age 45 years). All patients had classic plaque psoriasis. Normal skin from one healthy volunteer was obtained for grafting.
(§4) The efficacy study has been conducted on female mice. The total duration of the experiment was 8 weeks, upon receiving of the human skin. Normal skin from healthy volunteers were obtained for grafting. Healthy human abdominal skin pieces with a width of 0.4 mm and surface area of 1.5×1.5 cm were provided. The skin sample was preserved in isotonic saline solution and transplanted within 6-12 hours after skin donation. In addition, blood samples were collected from psoriatic patients having classic plaque psoriasis and not undergoing any treatment. 20 mL blood samples were taken from both males and females psoriatic patients (from psoriatic patients having classic plaque psoriasis and not undergoing any treatment), and peripheral blood mononuclear cells (PBMC) were separated immediately after blood withdrawal.
(§5) Mice: Beige-severe combined immunodeficient mice C.B-17/IcrHsdscid-bg (beige-SCID) mice (weight ˜25 g) were included in this study. Mice were monitored twice a week for vital signs such as weight, food intake, coat, eyes, anal genital areas, discharge/soiling, behavior and criteria related to skin transplantation. Normal healthy human donor skin were transplanted onto the beige-SCID mice as previously described (See Keren A. et al., Novel nanosome delivery system combined with siRNA targeting the antimicrobial gene DFB4: a new approach for psoriasis management? ExpDermatol. 2014; 23:464-465; Bracke S. et a/., Targeted silencing of DEFB4 in a bioengineered skin-humanized mouse model for psoriasis: development of siRNA SECosome-based novel therapies. ExpDermatol. 2014; 23:199-201; Zaretsky M. et al., Directed evolution of a soluble human IL-17A receptor for the inhibition of psoriasis plaque formation in a mouse model. Chem Biol. 2013 21; 20:202-2; Gilhar A. et al., The beneficial effect of blocking Kv1.3 in the psoriasiform SCID mouse model. J Invest Dermatol. 2011; 131:118 124; Keren A. et al., Innate lymphoid cells 3 induce psoriasis in xenotransplanted healthy human skin. J Allergy Clin Immunol. 2018; 142:305-308.e6).
(§6) British Journal of Pharmacology 2010; 159:842-855).
(§7) Four weeks following the engraftment, each mouse was injected (intradermally) with 1×10^7 IL-2 enriched allogeneic PBMC's from psoriatic patients (1×10^7 cells injected/mouse). Cells from different psoriasis patients were equally distributed between treatment groups. Each patient was represented in each treatment group.
(§8) Fourteen days following cells injections, the mice were divided into treatment groups (Table 1, see below) and treated according to the timeline indicated below (see Scheme 1). Each transplant was equally topically treated (50 μg) by using a sterile spatula.
(§9) Dexamethasone (D2915, Sigma): was freshly prepared for each administration by dilution in saline to final concentration (50 mg/ml). […]

[3] = system: experimentally induced psoriasis in normal human skin grafted onto beige-SCID mice; assay: Study 1: histology of human skin xenograft psoriasis model in beige-SCID mice; type: in vivo; conditions: for Mean Epidermal Thickness: topical 14 days, grafts excised Day 56, mean ± SD
Source text: as §1, §2, §3, §4, §5, §6, §7, §8, §9

[4] = as a single drug, psoriasis treatment; placebo 20.2%; cited from earlier work
[5] = histological evaluation of human skin grafts

C[C@@H]1C[C@H]2[C@@H]3CCC4=CC(=O)C=C[C@]4(C)[C@@]3(F)[C@@H](O)C[C@]2(C)[C@@]1(O)C(=O)CO [Dexamethasone]
CD4 [1]: 0.5 ± 0.8 Cells per 0.66 mm^2 | CD8 [1]: 0.6 ± 0.6 Cells per 0.66 mm^2 | HBD2 (Integrated intensity, %) [1]: 5.8 ± 0.9% | IL-17 [1]: 0.6 ± 0.9^ Cells per 0.66 mm^2 | IL-22 [1]: 0.4 ± 0.8 Cells per 0.66 mm^2 | Psoriasin (S100A7) (Integrated intensity, %) [1]: 6.6 ± 2.1% | Proliferation index (%) [2]: 6 ± 2% | Baker score: Agranulosis - hypogranulosis ([2]; average ± SD): 0.1 ± 0.3 | Baker score: Blood vessels (tortuosity, elongation) ([2]; average ± SD): 0.05 ± 0.1 | Baker score: Epidermal thickening (acanthosis) ([2]; average ± SD): 0.05 ± 0.1 | Baker score: Hyperkeratosis ([2]; average ± SD): 0 ± 0 | Baker score: Mononuclear cells infiltrate in the papillary dermis ([2]; average ± SD): 0 ± 0 | Baker score: Munro micro abscess ([2]; average ± SD): 0 ± 0 | Baker score: Parakeratosis ([2]; average ± SD): 0 ± 0 | Baker score: Regular/abnormal elongation of rete ridges ([2]; average ± SD): 0 ± 0 | Baker score: Suprapapillary epidermal thinning ([2]; average ± SD): 0.05 ± 0.1 | Histological Scoring (Baker system), Total Score ([2]; average ± SD): 0.25 ± 0.8 | Complete Recovery (grafts/total grafts) [2, 5]: 10/10 | Partial Recovery (grafts/total grafts) [2, 5]: 0/10 | Psoriatic Features (grafts/total grafts) [2, 5]: 0/10 | Mean Epidermal Thickness ([2]; mean ± SD): 193 ± 71 | Partial Recovery (percent of grafts) [3]: (10%) | Psoriatic Features (percent of grafts) [3]: (0%) | Baker score: Agranulosis - hypogranulosis ([3]; average ± SD): 0.1 ± 0.3 | Baker score: Blood vessels (tortuosity, elongation) ([3]; average ± SD): 0.05 ± 0.1 | Baker score: Epidermal thickening (acanthosis) ([3]; average ± SD): 0.05 ± 0.1 | Baker score: Hyperkeratosis ([3]; average ± SD): 0.05 ± 0.1 | Baker score: Mononuclear cells infiltrate in the papillary dermis ([3]; average ± SD): 0.2 ± 0.6 | Baker score: Munro micro abscess ([3]; average ± SD): 0 ± 0 | Baker score: Parakeratosis ([3]; average ± SD): 0.1 ± 0.3 | Baker score: Regular/abnormal elongation of rete ridges ([3]; average ± SD): 0.1 ± 0.4 | Baker score: Suprapapillary epidermal thinning ([3]; average ± SD): 0.05 ± 0.1 | Histological Scoring (Baker system), Total Score ([3]; average ± SD): 0.7 ± 1.9 | Complete Recovery (grafts/total grafts) [3, 5]: 9/10 | Partial Recovery (grafts/total grafts) [3, 5]: 1/10 | Psoriatic Features (grafts/total grafts) [3, 5]: 0/10 | Mean Epidermal Thickness [3]: 254±59 μm | Mean Epidermal Thickness ([3]; listed as Dexamethasone 2 mg): 254 ± 59 μm

CC(C)c1c(O)cc(/C=C/c2ccccc2)cc1O [Tapinarof, 3,5-dihydroxy-4-isopropyl-trans-stilbene]
adverse effects [4]: 44.5%

C=C1/C(=C\C=C2/CCC[C@]3(C)[C@@H]([C@H](C)/C=C/[C@@H](O)C4CC4)CC[C@@H]23)C[C@@H](O)C[C@@H]1O [calcipotriene]
adverse effects [4]: 19.5%
